Laboratory results taken from paper PMC3968014, “Design and Synthesis of a Library of Lead-Like 2,4-Bisheterocyclic Substituted Thiophenes as Selective Dyrk/Clk Inhibitors” (PLoS ONE, 2014).

Tests used:
MET (cMet) = target: T1, MET (cMet) (Homo sapiens, UniProt P08581); assay: Selectivity panel MET; format: biochemical; conditions: 5 µM inhibitor
T1 construct: purchased Life Technologies (Invitrogen SelectScreen); Dyrk1A, Dyrk2 and CK2α in-house or gifts

MAPKAPK2 = target: T2, MAPKAPK2 (Homo sapiens, UniProt P49137); assay: Selectivity panel MAPKAPK2; format: biochemical; conditions: 5 µM inhibitor
T2 construct: purchased Life Technologies (Invitrogen SelectScreen); Dyrk1A, Dyrk2 and CK2α in-house or gifts

AXL = target: T3, AXL (Homo sapiens, UniProt P30530); assay: Selectivity panel AXL; format: biochemical; conditions: 5 µM inhibitor
T3 construct: purchased Life Technologies (Invitrogen SelectScreen); Dyrk1A, Dyrk2 and CK2α in-house or gifts

CSNK1G1 (CK1 gamma 1) = target: T4, CSNK1G1 (CK1 gamma 1) (Homo sapiens, UniProt Q9HCP0); assay: Selectivity panel CSNK1G1; format: biochemical; conditions: 5 µM inhibitor
T4 construct: purchased Life Technologies (Invitrogen SelectScreen); Dyrk1A, Dyrk2 and CK2α in-house or gifts

BRSK1 (SAD1) = target: T5, BRSK1 (SAD1) (Homo sapiens, UniProt Q8TDC3); assay: Selectivity panel BRSK1; format: biochemical; conditions: 5 µM inhibitor
T5 construct: purchased Life Technologies (Invitrogen SelectScreen); Dyrk1A, Dyrk2 and CK2α in-house or gifts

EPHB3 = target: T6, EPHB3 (Homo sapiens, UniProt P54753); assay: Selectivity panel EPHB3; format: biochemical; conditions: 5 µM inhibitor
T6 construct: purchased Life Technologies (Invitrogen SelectScreen); Dyrk1A, Dyrk2 and CK2α in-house or gifts

ACVR1 (ALK2) = target: T7, ACVR1 (ALK2) (Homo sapiens, UniProt Q04771); assay: Selectivity panel ACVR1; format: biochemical; conditions: 5 µM inhibitor
T7 construct: purchased Life Technologies (Invitrogen SelectScreen); Dyrk1A, Dyrk2 and CK2α in-house or gifts

PTK6 (Brk) = target: T8, PTK6 (Brk) (Homo sapiens, UniProt Q13882); assay: Selectivity panel PTK6; format: biochemical; conditions: 5 µM inhibitor
T8 construct: purchased Life Technologies (Invitrogen SelectScreen); Dyrk1A, Dyrk2 and CK2α in-house or gifts

RPS6KA1 (RSK1) = target: T9, RPS6KA1 (RSK1) (Homo sapiens, UniProt Q15418); assay: Selectivity panel RPS6KA1; format: biochemical; conditions: 5 µM inhibitor
T9 construct: purchased Life Technologies (Invitrogen SelectScreen); Dyrk1A, Dyrk2 and CK2α in-house or gifts

PIK3CA/PIK3R1 = target: T10, PIK3CA/PIK3R1 (Homo sapiens, UniProt P42336); assay: Selectivity panel PIK3CA/PIK3R1; format: biochemical; conditions: 5 µM inhibitor
T10 construct: purchased Life Technologies (Invitrogen SelectScreen); Dyrk1A, Dyrk2 and CK2α in-house or gifts

EEF2K = target: T11, EEF2K (Homo sapiens, UniProt O00418); assay: Selectivity panel EEF2K; format: biochemical; conditions: 5 µM inhibitor
T11 construct: purchased Life Technologies (Invitrogen SelectScreen); Dyrk1A, Dyrk2 and CK2α in-house or gifts

SRC = target: T12, SRC (Homo sapiens, UniProt P12931); assay: Selectivity panel SRC; format: biochemical; conditions: 5 µM inhibitor
T12 construct: purchased Life Technologies (Invitrogen SelectScreen); Dyrk1A, Dyrk2 and CK2α in-house or gifts

U2OS osteosarcoma cells = assay: ROS Assay (dihydroethidium); format: cell-based; conditions: 48 hours
Protocol: U2OS osteosarcoma cells were plated on six well cell culture plates (5*10^5 cells/well). […]. Cells were washed with phosphate–buffered saline (PBS) and incubated for 30 min at 37°C in the dark with 10 µM dihydroethidium (DHE) in PBS and washed with PBS. The cells were then trypsinized, collected by centrifugation, and lysed with lysis buffer (100 mM Tris/HCl, pH 7.3, 2 mM EGTA, 2% Triton X100). The amount of ethidium produced by reactive oxygen species (ROS) was quantified by measuring the fluorescence (Ex485, Em620) in a POLARstar plate reader (BMG Labtech, Offenburg, Germany). Values obtained for different compound concentrations were compared using the two-sided Student's t-test; levels of significance thus obtained are indicated by asterisks.

TGFBR1 (ALK5) = target: T13, TGFBR1 (ALK5) (Homo sapiens, UniProt P36897); assay: Selectivity panel TGFBR1; format: biochemical; conditions: 5 µM inhibitor
T13 construct: purchased Life Technologies (Invitrogen SelectScreen); Dyrk1A, Dyrk2 and CK2α in-house or gifts

PLK2/SNK = target: T14, PLK2/SNK (Homo sapiens, UniProt Q9NYY3); assay: Selectivity panel PLK2/SNK; format: biochemical; conditions: 5 µM inhibitor
T14 construct: purchased Life Technologies (Invitrogen SelectScreen); Dyrk1A, Dyrk2 and CK2α in-house or gifts

PIM2 = target: T15, PIM2 (Homo sapiens, UniProt Q9P1W9); assay: Selectivity panel PIM2; format: biochemical; conditions: 5 µM inhibitor
T15 construct: purchased Life Technologies (Invitrogen SelectScreen); Dyrk1A, Dyrk2 and CK2α in-house or gifts

DYRK3 = target: T16, DYRK3 (Homo sapiens, UniProt O43781); assay: Selectivity panel DYRK3; format: biochemical; conditions: 5 µM inhibitor
T16 construct: purchased Life Technologies (Invitrogen SelectScreen); Dyrk1A, Dyrk2 and CK2α in-house or gifts

PHKG2 = target: T17, PHKG2 (Homo sapiens, UniProt P15735); assay: Selectivity panel PHKG2; format: biochemical; conditions: 5 µM inhibitor
T17 construct: purchased Life Technologies (Invitrogen SelectScreen); Dyrk1A, Dyrk2 and CK2α in-house or gifts

MAPK1 (ERK2) = target: T18, MAPK1 (ERK2) (Homo sapiens, UniProt P28482); assay: Selectivity panel MAPK1; format: biochemical; conditions: 5 µM inhibitor
T18 construct: purchased Life Technologies (Invitrogen SelectScreen); Dyrk1A, Dyrk2 and CK2α in-house or gifts

JAK2 = target: T19, JAK2 (Homo sapiens, UniProt O60674); assay: Selectivity panel JAK2; format: biochemical; conditions: 5 µM inhibitor
T19 construct: purchased Life Technologies (Invitrogen SelectScreen); Dyrk1A, Dyrk2 and CK2α in-house or gifts

KDR (VEGFR2) = target: T20, KDR (VEGFR2) (Homo sapiens, UniProt P35968); assay: Selectivity panel KDR; format: biochemical; conditions: 5 µM inhibitor
T20 construct: purchased Life Technologies (Invitrogen SelectScreen); Dyrk1A, Dyrk2 and CK2α in-house or gifts

AMPK A1/B1/G1 = target: T21, AMPK A1/B1/G1 (Homo sapiens, UniProt Q13131); assay: Selectivity panel AMPK; format: biochemical; conditions: 5 µM inhibitor
T21 construct: purchased Life Technologies (Invitrogen SelectScreen); Dyrk1A, Dyrk2 and CK2α in-house or gifts

ZAK = target: T22, ZAK (Homo sapiens, UniProt Q9NYL2); assay: Selectivity panel ZAK; format: biochemical; conditions: 5 µM inhibitor
T22 construct: purchased Life Technologies (Invitrogen SelectScreen); Dyrk1A, Dyrk2 and CK2α in-house or gifts

TBK1 = target: T23, TBK1 (Homo sapiens, UniProt Q9UHD2); assay: Selectivity panel TBK1; format: biochemical; conditions: 5 µM inhibitor
T23 construct: purchased Life Technologies (Invitrogen SelectScreen); Dyrk1A, Dyrk2 and CK2α in-house or gifts

T17 sequence (P15735 whole entry): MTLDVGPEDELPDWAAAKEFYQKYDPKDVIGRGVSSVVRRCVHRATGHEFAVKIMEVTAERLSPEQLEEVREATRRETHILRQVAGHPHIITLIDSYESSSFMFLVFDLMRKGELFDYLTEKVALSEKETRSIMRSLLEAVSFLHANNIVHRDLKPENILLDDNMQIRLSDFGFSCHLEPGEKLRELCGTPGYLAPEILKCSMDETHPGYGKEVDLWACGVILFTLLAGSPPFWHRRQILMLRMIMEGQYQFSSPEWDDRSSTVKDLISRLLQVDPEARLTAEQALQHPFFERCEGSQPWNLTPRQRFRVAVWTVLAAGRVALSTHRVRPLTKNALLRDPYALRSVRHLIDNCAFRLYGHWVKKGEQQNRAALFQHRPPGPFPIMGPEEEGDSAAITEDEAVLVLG
T14 sequence (Q9NYY3 whole entry): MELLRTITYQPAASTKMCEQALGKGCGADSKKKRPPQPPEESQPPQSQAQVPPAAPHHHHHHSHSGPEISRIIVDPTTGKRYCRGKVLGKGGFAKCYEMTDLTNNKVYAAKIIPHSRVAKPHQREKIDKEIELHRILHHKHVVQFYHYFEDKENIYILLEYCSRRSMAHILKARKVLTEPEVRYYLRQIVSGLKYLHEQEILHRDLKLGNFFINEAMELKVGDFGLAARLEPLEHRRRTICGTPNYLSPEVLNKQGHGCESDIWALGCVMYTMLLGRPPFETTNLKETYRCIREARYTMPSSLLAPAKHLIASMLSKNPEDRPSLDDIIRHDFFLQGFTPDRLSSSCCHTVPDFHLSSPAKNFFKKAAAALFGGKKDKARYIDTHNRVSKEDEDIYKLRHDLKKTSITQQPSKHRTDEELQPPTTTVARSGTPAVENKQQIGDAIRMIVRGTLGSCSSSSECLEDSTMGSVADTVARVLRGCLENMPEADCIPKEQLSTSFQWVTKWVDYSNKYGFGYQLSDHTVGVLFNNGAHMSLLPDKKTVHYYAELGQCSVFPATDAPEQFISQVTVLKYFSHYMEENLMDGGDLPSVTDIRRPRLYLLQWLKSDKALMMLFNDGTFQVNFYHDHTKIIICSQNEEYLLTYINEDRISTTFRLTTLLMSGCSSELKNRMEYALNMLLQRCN
T4 sequence (Q9HCP0 whole entry): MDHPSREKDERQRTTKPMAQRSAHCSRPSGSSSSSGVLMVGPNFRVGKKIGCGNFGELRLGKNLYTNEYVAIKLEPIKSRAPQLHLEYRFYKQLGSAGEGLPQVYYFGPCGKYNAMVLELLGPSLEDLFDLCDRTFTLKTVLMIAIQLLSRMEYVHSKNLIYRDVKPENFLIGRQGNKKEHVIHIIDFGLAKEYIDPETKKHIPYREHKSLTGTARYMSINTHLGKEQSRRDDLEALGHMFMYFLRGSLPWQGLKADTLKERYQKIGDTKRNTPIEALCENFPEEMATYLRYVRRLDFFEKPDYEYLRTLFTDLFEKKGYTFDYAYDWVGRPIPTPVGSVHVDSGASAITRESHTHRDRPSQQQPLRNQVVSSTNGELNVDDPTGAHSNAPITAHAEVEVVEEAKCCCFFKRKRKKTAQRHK
T16 sequence (O43781 whole entry): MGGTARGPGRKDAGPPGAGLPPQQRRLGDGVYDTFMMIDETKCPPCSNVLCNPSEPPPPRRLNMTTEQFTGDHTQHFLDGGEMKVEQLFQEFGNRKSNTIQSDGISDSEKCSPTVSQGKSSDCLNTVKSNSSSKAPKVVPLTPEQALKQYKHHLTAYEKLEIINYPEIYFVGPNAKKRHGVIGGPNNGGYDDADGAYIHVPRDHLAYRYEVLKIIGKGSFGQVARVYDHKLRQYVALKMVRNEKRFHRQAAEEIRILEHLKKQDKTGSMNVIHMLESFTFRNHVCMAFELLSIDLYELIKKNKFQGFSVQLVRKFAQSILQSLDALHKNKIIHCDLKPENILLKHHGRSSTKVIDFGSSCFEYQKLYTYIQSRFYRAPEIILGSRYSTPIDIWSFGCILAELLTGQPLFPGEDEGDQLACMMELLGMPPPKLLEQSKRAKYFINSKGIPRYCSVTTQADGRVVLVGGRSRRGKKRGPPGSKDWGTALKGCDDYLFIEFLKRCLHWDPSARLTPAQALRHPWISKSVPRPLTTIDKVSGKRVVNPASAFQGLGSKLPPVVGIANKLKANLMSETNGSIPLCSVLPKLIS
T13 sequence (P36897 34-503): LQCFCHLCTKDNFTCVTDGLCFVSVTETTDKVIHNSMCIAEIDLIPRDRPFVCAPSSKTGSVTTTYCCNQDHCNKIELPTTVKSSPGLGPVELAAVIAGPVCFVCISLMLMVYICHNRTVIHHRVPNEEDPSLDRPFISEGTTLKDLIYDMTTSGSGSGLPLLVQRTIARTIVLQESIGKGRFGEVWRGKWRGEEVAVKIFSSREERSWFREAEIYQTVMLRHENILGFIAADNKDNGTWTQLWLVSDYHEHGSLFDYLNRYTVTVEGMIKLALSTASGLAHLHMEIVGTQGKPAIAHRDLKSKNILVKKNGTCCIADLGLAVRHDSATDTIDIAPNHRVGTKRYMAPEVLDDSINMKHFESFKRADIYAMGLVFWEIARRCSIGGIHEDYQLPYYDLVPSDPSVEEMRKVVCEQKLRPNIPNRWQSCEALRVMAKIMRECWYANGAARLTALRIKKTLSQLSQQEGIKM
T20 sequence (P35968 20-1356): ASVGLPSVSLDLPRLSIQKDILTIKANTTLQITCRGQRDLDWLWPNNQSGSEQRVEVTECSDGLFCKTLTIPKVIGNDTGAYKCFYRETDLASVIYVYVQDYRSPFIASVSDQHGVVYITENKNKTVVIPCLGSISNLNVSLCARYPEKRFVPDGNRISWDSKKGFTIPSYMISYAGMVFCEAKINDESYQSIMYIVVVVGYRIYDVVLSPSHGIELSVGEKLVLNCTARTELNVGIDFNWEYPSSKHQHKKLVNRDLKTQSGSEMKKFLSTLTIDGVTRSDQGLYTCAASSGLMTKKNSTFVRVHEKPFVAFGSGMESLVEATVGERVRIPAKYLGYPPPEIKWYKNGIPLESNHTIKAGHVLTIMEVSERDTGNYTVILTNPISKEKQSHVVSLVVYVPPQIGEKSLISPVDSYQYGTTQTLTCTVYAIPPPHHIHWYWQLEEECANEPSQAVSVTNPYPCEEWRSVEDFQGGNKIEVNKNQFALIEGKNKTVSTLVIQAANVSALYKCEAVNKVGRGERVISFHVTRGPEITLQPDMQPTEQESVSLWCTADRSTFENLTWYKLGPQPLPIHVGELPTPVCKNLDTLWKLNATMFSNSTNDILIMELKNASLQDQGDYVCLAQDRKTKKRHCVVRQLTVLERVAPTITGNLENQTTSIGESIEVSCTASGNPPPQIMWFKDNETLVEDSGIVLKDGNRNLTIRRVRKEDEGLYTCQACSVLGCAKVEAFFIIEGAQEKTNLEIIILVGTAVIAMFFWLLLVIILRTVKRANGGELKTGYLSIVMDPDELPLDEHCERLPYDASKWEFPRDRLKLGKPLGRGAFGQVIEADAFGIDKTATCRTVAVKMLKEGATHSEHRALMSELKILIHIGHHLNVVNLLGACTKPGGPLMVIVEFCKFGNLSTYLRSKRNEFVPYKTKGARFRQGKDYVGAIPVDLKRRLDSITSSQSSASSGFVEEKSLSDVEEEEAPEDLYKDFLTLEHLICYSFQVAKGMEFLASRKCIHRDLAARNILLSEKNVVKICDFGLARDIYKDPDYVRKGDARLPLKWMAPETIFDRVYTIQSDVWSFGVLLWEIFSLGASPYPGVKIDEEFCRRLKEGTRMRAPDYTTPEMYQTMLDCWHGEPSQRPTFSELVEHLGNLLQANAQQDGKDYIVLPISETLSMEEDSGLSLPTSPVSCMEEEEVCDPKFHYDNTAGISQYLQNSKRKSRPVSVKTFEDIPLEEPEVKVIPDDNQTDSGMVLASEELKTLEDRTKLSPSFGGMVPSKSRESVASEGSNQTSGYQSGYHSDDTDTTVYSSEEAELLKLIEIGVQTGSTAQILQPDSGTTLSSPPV
T2 sequence (P49137 whole entry): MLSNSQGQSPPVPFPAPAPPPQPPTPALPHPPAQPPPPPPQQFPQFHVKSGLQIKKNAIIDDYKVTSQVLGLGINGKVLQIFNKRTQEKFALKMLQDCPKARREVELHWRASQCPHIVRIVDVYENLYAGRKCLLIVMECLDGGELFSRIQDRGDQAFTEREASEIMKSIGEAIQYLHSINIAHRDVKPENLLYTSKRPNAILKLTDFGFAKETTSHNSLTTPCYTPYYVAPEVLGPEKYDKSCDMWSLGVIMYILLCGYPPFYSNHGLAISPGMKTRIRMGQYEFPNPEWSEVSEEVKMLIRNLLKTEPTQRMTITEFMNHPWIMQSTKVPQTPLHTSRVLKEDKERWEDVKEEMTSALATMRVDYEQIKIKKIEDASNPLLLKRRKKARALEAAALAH
T7 sequence (Q04771 21-509): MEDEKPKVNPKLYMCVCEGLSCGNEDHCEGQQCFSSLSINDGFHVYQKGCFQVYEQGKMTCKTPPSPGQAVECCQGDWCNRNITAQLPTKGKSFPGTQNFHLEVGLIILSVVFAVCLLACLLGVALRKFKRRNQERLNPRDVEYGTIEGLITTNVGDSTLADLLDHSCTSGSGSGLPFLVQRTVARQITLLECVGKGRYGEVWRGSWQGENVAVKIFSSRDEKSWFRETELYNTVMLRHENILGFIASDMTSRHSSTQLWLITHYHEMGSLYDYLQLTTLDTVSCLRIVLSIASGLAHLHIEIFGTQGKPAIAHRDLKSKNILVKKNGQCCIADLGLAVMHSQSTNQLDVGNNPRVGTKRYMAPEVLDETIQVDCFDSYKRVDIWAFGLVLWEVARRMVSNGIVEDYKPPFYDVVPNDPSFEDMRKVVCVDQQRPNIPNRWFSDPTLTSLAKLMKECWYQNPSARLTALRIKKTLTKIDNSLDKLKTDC

| Structure (SMILES) | inhibition at 5 µM (MET (cMet)) [%] | inhibition at 5 µM (MAPKAPK2) [%] | inhibition at 5 µM (AXL) [%] | inhibition at 5 µM (CSNK1G1 (CK1 gamma 1)) [%] | inhibition at 5 µM (BRSK1 (SAD1)) [%] | inhibition at 5 µM (EPHB3) [%] | inhibition at 5 µM (ACVR1 (ALK2)) [%] | inhibition at 5 µM (PTK6 (Brk)) [%] | inhibition at 5 µM (RPS6KA1 (RSK1)) [%] | inhibition at 5 µM (PIK3CA/PIK3R1) [%] | inhibition at 5 µM (EEF2K) [%] | inhibition at 5 µM (SRC) [%] | inhibition at 5 µM (TGFBR1 (ALK5)) [%] | inhibition at 5 µM (PLK2/SNK) [%] | inhibition at 5 µM (PIM2) [%] | inhibition at 5 µM (DYRK3) [%] | inhibition at 5 µM (PHKG2) [%] | inhibition at 5 µM (MAPK1 (ERK2)) [%] | inhibition at 5 µM (JAK2) [%] | inhibition at 5 µM (KDR (VEGFR2)) [%] | other results |
| --- | --- | --- | --- | --- | --- | --- | --- | --- | --- | --- | --- | --- | --- | --- | --- | --- | --- | --- | --- | --- | --- |
| c1cncc(-c2cc(-c3cncs3)cs2)c1 [Compound 29, 3-[4-(1,3-thiazol-5-yl)thiophen-2-yl]pyridine] | 1 | 2 | -2 | -5 | 11 | 0 | 51 | 30 | 2 | 21 | 0 | -8 | 24 | -3 | 7 | 66 | -12 | -6 | -2 | 6 | concentration at which enhancement of reporter dye fluorescence (ROS) starts (U2OS osteosarcoma cells): 0.2 µM; inhibition at 5 µM (AMPK A1/B1/G1): -9%; inhibition at 5 µM (ZAK): 11%; inhibition at 5 µM (TBK1): 3% |
| c1cncc(-c2csc(-c3cncs3)c2)c1 [Compound 48, 3-[5-(1,3-thiazol-5-yl)thiophen-3-yl]pyridine] | -12 | 2 | -11 | -3 | -4 | 1 | 51 | 34 | 4 | 12 | 1 | -4 | 22 | 1 | 5 | 69 | -11 | 1 | -4 | 10 | inhibition at 5 µM (AMPK A1/B1/G1): -5%; inhibition at 5 µM (ZAK): 11%; inhibition at 5 µM (TBK1): 8% |
